Results reported in PMC6186272 (Stem Cells Translational Medicine, 2018).
pIC50: −log10 of the molar value.

Legend:
[1] = test system: HES‐3 (NKX2‐5eGFP/w reporter cell line); format: cell-based, human; details: for Induction of cardiomyogenesis in HES-3 cells: 5 μM, days 3–5, day 13; for Percentage of NKX2‐5/GFP positive cells: HES-3, 5 μM (IWR-1: 2.5 μM), days 3–5, flow cytometry day 13, DMSO 14%
IMR‐90 cells = assay: Monolayer cardiac differentiation, IMR-90 cells; format: cell-based, human; details: 5 μM (IWR-1: 2.5 μM), days 3–5, day 13
H1 cells = assay: Monolayer cardiac differentiation, H1 cells; format: cell-based, human; details: days 3–5, day 13; for Cardiac differentiation in H1 cells: 5 μM; for NKX2‐5/cTnT‐positive cells: H1, 5 μM (IWR-1: 2.5 μM)
ALK5 = target: T1, ALK5 (Homo sapiens, UniProt P36897); assay: LanthaScreen Eu Kinase binding assay, ALK5; details: for pIC50: read-out: ALK5 IC50 ± SEM, mean ± SEM, triplicate
T1 sequence (P36897 34-503): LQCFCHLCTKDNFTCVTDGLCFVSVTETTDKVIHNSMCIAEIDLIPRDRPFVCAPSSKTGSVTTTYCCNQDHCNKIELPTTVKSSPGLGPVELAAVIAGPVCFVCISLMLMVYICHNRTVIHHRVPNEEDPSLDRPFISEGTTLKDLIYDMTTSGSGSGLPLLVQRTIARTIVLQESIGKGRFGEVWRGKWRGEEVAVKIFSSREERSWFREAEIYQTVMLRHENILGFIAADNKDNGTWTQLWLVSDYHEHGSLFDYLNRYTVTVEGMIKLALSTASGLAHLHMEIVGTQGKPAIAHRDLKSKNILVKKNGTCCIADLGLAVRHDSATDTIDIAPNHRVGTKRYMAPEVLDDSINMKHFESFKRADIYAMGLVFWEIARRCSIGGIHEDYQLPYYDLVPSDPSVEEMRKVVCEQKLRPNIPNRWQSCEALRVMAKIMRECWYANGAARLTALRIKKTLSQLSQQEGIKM

[2] = Permeability test: mass retention to the artificial membrane; format: in vitro ADME
TGFBR2 [3] = target: T2, TGFBR2 (Homo sapiens, UniProt P37173); details: 1 μM compound
T2 sequence (P37173 23-567): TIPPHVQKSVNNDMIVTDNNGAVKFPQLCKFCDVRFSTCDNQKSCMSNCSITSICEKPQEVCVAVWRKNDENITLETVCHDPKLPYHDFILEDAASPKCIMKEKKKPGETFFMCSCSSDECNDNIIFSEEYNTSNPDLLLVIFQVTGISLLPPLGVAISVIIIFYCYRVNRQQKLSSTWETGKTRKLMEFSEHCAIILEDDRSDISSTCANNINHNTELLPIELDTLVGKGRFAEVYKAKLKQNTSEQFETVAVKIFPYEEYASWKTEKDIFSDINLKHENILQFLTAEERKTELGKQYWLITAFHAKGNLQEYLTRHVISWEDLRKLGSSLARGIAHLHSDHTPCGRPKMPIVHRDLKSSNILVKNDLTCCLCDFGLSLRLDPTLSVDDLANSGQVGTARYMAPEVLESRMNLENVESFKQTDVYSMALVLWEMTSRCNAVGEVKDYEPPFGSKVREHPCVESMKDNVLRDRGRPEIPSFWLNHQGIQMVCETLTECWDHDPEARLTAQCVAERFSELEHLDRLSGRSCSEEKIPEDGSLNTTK

[4] = test system: HES‐3 (NKX2–5eGFP/w reporter cell line); details: 5 μM, days 3–5, image analysis on day 13
[5] = test system: SMAD2 phosphorylation (TGFβ pathway); details: 5 μM, day 3, 30 minutes to 8 hours
[6] = test system: SMAD/GFP reporter cell line (TGFβ pathway); details: 5 μM, then TGFβ3 2, 100, 1000 ng/ml
hPSCs = details: for Cell proliferation during neural differentiation: 5 and 10 μM, days 1 to 9, cell count day 9
Wnt3a = assay: Quantitative RT-PCR of Wnt3a expression during cardiac differentiation; format: cell-based, human; details: CHIR99021 6 μM day 0, 1.5 μM day 1; SB203580 and TA-01 5 μM
BMPR1B kinase = details: percentage of control; cited from earlier work
TGFBR2 [7] = target: T2, TGFBR2; details: cited from earlier work
[8] = test system: NKX2‐5/GFP‐positive cells; details: added from days 4 to 8; cited from earlier work

## Cc1cccc(-c2[nH]ncc2-c2ccc(F)c(-c3cnn(CCO)c3)c2)n1 [Compound R268712]
[1]
  Induction of cardiomyogenesis in HES-3 cells: failed to induce cardiomyogenesis
IMR‐90 cells
  Cardiac differentiation in IMR-90 cells: promoted cardiac differentiation
H1 cells
  Cardiac differentiation in H1 cells: promoted cardiac differentiation

## Fc1ccc(-c2nc(-c3c(Cl)cccc3Cl)[nH]c2-c2ccncc2)cc1 [TI-15, 4-(2-(2,6-Dichlorophenyl)-4(5)-(4-fluorophenyl)-1H-imidazol-5(4)-yl)pyridine]
ALK5; ratio of IC50 values
  Potency in the inhibition of ALK5 relative to TA‐01: approximately 10 times
[2]
  Permeability compared with IWR-1 and CHIR99021: less permeable
[1]; days 2–5, data not shown
  Cell proliferation during cardiac differentiation, dosing days 2–5: inhibition of cell proliferation
[1]; days 3–5
  Cell growth during cardiac differentiation, dosing days 3–5: does not inhibit cell growth
TGFBR2 [3]
  Percentage inhibition of TGFBR2 at 1 μM: 80%
[4]
  NKX2-5/GFP expression of EBs compared with TA-01: higher GFP expression than the lead compound TA‐01
Wnt/β‐catenin pathway; 5 μM, day 3, 1, 4 and 8 hours after treatment
  β‐catenin phosphorylation on Ser552/675 and downstream TCF‐1/LEF‐1 expression: expression levels did not change
[5]
  Phosphorylation of SMAD2 protein at Ser 465/467: significantly reduced
[6]
  Numbers of GFP‐positive cells (nuclear SMAD/GFP reporter): reduced
hPSCs; 2.5 μM, days 1 to 9
  Cell growth during neural differentiation at 2.5 μM: not at the concentration of 2.5 μM
hPSCs
  Cell proliferation during neural differentiation: inhibit cell proliferation

## Fc1ccc(-c2nc(-c3c(F)cccc3I)[nH]c2-c2ccncc2)cc1 [TI-29, 4-(2-(2-Fluoro-6-iodophenyl)-4(5)-(4-fluorophenyl)-1H-imidazol-5(4)-yl)pyridine]
ALK5
  pIC50: 7.66

## O=[N+]([O-])c1ccccc1-c1nc(-c2ccc(F)cc2)c(-c2ccncc2)[nH]1 [TI-26, 4-(4(5)-(4-Fluorophenyl)-2-(2-nitrophenyl)-1H-imidazol-5(4)-yl)pyridine]
[4]
  NKX2-5/GFP expression of EBs compared with TA-01: higher GFP expression than the lead compound TA‐01

## Fc1ccc(-c2nc(-c3c(F)cccc3Br)[nH]c2-c2ccncc2)cc1 [TI-21, 4-(2-(2-Bromo-6-fluorophenyl)-4(5)-(4-fluorophenyl)-1H-imidazol-5(4)-yl)pyridine]
ALK5
  pIC50: 7.96
[4]
  NKX2-5/GFP expression of EBs compared with TA-01: higher GFP expression than the lead compound TA‐01

## COc1cccc(F)c1-c1nc(-c2ccc(F)cc2)c(-c2ccncc2)[nH]1 [TI-20, 4-(2-(2-Fluoro-6-methoxyphenyl)-4(5)-(4-fluorophenyl)-1H-imidazol-5(4)-yl)pyridine]
[4]
  NKX2-5/GFP expression of EBs compared with TA-01: higher GFP expression than the lead compound TA‐01

## Cc1ccc2nc(NC(=O)CSc3nc4c(c(=O)n3-c3ccccc3)SCC4)sc2c1 [IWP-2, reference compound]
[4]
  NKX2-5/GFP expression of EBs compared with TA-01: higher GFP expression than the lead compound TA‐01

## Fc1ccc(-c2c(-c3ccncc3)ncn2-c2ccccc2)cc1 [TI-38, 4-(5-(4-Fluorophenyl)-1-phenyl-1H-imidazol-4-yl)pyridine]
hPSCs
  Cell proliferation during neural differentiation: inhibit cell proliferation

## Cc1c[nH]c(-c2cnc(NCCNc3ccc(C#N)cn3)nc2-c2ccc(Cl)cc2Cl)n1 [CHIR99021]
Wnt3a
  Suppression of Wnt3a expression on day 3: expression of Wnt3a was suppressed

## Fc1ccc(-c2nc(-c3c(F)cccc3F)[nH]c2-c2ccncc2)cc1 [TA-01]
[2]
  Permeability compared with IWR-1 and CHIR99021: less permeable
[1]
  Percentage of NKX2‐5/GFP positive cells: 30%–40%
Wnt3a
  Suppression of Wnt3a expression on day 3: not observed
TGFBR2 [3]
  Percentage inhibition of TGFBR2 at 1 μM: 91%
BMPR1B kinase
  BMPR1B binding, POC at 10 μM: 6.2
TGFBR2 [7]
  TGFBR2 binding, percentage of control at 10 μM: 1.6
[8]
  Increase in the percentage expression of NKX2‐5/GFP‐positive cells over DMSO: threefold

## Fc1ccc(-c2nc(-c3ccccc3)[nH]c2-c2ccncc2)cc1 [TI-14, 4-(4(5)-(4-Fluorophenyl)-2-phenyl-1H-imidazol-5(4)-yl)pyridine]
[4]
  NKX2-5/GFP expression of EBs compared with TA-01: higher GFP expression than the lead compound TA‐01

## COc1cc(O)c(-c2nc(-c3ccc(F)cc3)c(-c3ccncc3)[nH]2)c(OC)c1 [TI-25, 2-(4(5)-(4-Fluorophenyl)-5(4)-(pyridin-4-yl)-1H-imidazol-2-yl)-3,5-dimethoxyphenol]
[4]
  NKX2-5/GFP expression of EBs compared with TA-01: higher GFP expression than the lead compound TA‐01

## Fc1ccc(-c2nc(-c3ccc4ccccc4c3F)[nH]c2-c2ccncc2)cc1 [TI-42, 4-(2-(1-Fluoronaphthalen-2-yl)-4(5)-(4-fluorophenyl)-1H-imidazol-5(4)-yl)pyridine]
[2]
  Permeability compared with IWR-1 and CHIR99021: less permeable

## C[S+]([O-])c1ccc(-c2nc(-c3ccncc3)c(-c3ccc(F)cc3)[nH]2)cc1 (stereo not shown) [SB203580]
Wnt3a
  Suppression of Wnt3a expression on day 3: not observed

## CCOC(=O)C1=C(C)NC2=C(C(=O)CC(C)(C)C2)C1c1ccc(-c2ccccc2)cc1 (stereo not shown) [ITD‐1]
[1]
  Percentage of NKX2‐5/GFP positive cells: 25%
H1 cells
  NKX2‐5/cTnT‐positive cells: ~ 40%
hPSCs
  Cell proliferation during neural differentiation: inhibit cell proliferation

## O=[N+]([O-])c1cccc(Cl)c1-c1nc(-c2ccc(F)cc2)c(-c2ccncc2)[nH]1 [TI-24, 4-(2-(2-Chloro-6-nitrophenyl)-4(5)-(4-fluorophenyl)-1H-imidazol-5(4)-yl)pyridine]
ALK5
  pIC50: 7.88
[4]
  NKX2-5/GFP expression of EBs compared with TA-01: higher GFP expression than the lead compound TA‐01

## COc1cccc(OC)c1-c1nc(-c2ccc(F)cc2)c(-c2ccncc2)[nH]1 [TI-18, 4-(2-(2,6-Dimethoxyphenyl)-4(5)-(4-fluorophenyl)-1H-imidazol-5(4)-yl)pyridine]
ALK5
  pIC50: 6.13

## Fc1ccc(-c2nc(C3CCCCC3)[nH]c2-c2ccncc2)cc1 [TI-34, 4-(2-Cyclohexyl-4(5)-(4-fluorophenyl)-1H-imidazol-5(4)-yl)pyridine]
TGFBR2 [3]
  Percentage inhibition of TGFBR2 at 1 μM: 81%

## Fc1ccc(-c2nc(-c3ccc4ccccc4c3Br)[nH]c2-c2ccncc2)cc1 [TI-33, 4-(2-(1-Bromonaphthalen-2-yl)-4(5)-(4-fluorophenyl)-1H-imidazol-5(4)-yl)pyridine]
[4]
  NKX2-5/GFP expression of EBs compared with TA-01: higher GFP expression than the lead compound TA‐01

## Cc1cccc(-c2[nH]ncc2-c2ccc3ncccc3n2)n1 [RepSox]
[1]
  Induction of cardiomyogenesis in HES-3 cells: failed to induce cardiomyogenesis
IMR‐90 cells
  Cardiac differentiation in IMR-90 cells: promoted cardiac differentiation
H1 cells
  Cardiac differentiation in H1 cells: promoted cardiac differentiation

## O=C(Nc1cccc2cccnc12)c1ccc(N2C(=O)[C@@H]3[C@H](C2=O)[C@@H]2C=C[C@H]3C2)cc1 [IWR-1]
IMR‐90 cells
  Cardiac differentiation in IMR-90 cells: did not increase
H1 cells
  NKX2‐5/cTnT‐positive cells: approximately 80%
Wnt/β‐catenin pathway; 2.5 μM
  Axin 1 and 2 expression: upregulation

## Cc1cccc(C)c1-c1nc(-c2ccc(F)cc2)c(-c2ccncc2)[nH]1 [TI-27, 4-(2-(2,6-Dimethylphenyl)-4(5)-(4-fluorophenyl)-1H-imidazol-5(4)-yl)pyridine]
[4]
  NKX2-5/GFP expression of EBs compared with TA-01: higher GFP expression than the lead compound TA‐01

## Fc1ccc(Cl)cc1-c1nc(Nc2ccncc2)c2nccnc2n1 [SD208]
[1]
  Induction of cardiomyogenesis in HES-3 cells: failed to induce cardiomyogenesis
IMR‐90 cells
  Cardiac differentiation in IMR-90 cells: promoted cardiac differentiation
H1 cells
  Cardiac differentiation in H1 cells: promoted cardiac differentiation

## COc1ccccc1-c1nc(-c2ccc(F)cc2)c(-c2ccncc2)[nH]1 [TI-16, 4-(2-(2-Methoxyphenyl)-4(5)-(4-fluorophenyl)-1H-imidazol-5(4)-yl)pyridine]
[4]
  NKX2-5/GFP expression of EBs compared with TA-01: higher GFP expression than the lead compound TA‐01
